Source: US20060063782A1, “3-Hetero arylmethoxy ! pyridines and their analogues as p38 map kinase inhibitors” (priority 2002, published 2006)

system: LPS-induced TNF-α production in THP-1 cells; test: Inhibition of LPS-Induced TNF-α Production in THP-1 Cells (ELISA); type: cell-based; settings: Homo sapiens; PMA-treated THP-1 cells, 1 μg/ml LPS, 6 hours, TNF-α by ELISA; read-out: IC50 (inhibition of TNF-α release)
Method: THP-1 cells were suspended in culture medium containing 50 ng/ml PMA (SIGMA), seeded into a 96-well tissue culture plate (IWAKI) at 1×10^5 cells/well (100 μl/well) and incubated as described above for approximately 48 hours. The medium was then aspirated, the wells washed twice in Phosphate Buffered Saline and 1 μg/ml LPS (SIGMA) in culture medium was added (200 μl/well).
Test compounds were reconstituted in DMSO (SIGMA) and then diluted with the culture medium such that the final DMSO concentration was 0.1%. Twenty microlitre aliquots of test solution or medium only with DMSO (solvent control) were added to triplicate wells immediately following LPS addition, and incubated for 6 hours as described above. Culture supernatants were collected and the amount of human TNF-α present was determined by ELISA (R&D Systems) performed according to the manufacturer's instructions.
The IC50 was defined as the concentration of the test compound corresponding to half maximal inhibition of the control activity by non-linear regression analysis of their inhibition curves.

Row | SMILES | IC50
1 | O=C(Nc1ccc(Cl)c(COc2cnccn2)c1)c1cc(F)cc(N2CCOCC2)c1 [Compound 94, N-[4-Chloro-3-(pyrazin-2-yloxymethyl)-phenyl]-3-fluoro-5-morpholin-4-yl-benzamide] | 0.21 µM
2 | O=C(Nc1ccc(Cl)c(COc2ccc(NCCO)nc2)c1)c1cc(F)cc(N2CCOCC2)c1 [Compound 76, N-{4-Chloro-3-[6-(2-hydroxy-ethylamino)-pyridin-3-yloxymethyl]-phenyl}-3-fluoro-5-morpholin-4-yl-benzamide] | 0.97 µM

molecular target: p38 MAP kinase (Homo sapiens, UniProt Q16539); test: p38 MAP Kinase Assay (33P incorporation into myelin basic protein, filter plate); type: biochemical; settings: Table 1; MKK6-activated p38, MBP substrate, 50 minutes
Sequence (Q16539 whole entry): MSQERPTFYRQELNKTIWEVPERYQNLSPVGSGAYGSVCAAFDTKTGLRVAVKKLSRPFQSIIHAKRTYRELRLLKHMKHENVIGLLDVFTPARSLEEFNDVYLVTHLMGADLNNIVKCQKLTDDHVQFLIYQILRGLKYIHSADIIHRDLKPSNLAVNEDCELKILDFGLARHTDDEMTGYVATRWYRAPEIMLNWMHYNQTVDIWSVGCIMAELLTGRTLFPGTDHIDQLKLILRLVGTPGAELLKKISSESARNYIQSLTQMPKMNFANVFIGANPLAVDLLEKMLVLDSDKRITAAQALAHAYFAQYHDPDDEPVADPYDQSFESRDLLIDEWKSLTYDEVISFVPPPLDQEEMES

Row | SMILES | IC50
3 | O=C(Nc1ccc(Cl)c(COc2ccc(NCCO)nc2)c1)c1cc(F)cc(N2CCOCC2)c1 [Compound 76, N-{4-Chloro-3-[6-(2-hydroxy-ethylamino)-pyridin-3-yloxymethyl]-phenyl}-3-fluoro-5-morpholin-4-yl-benzamide] | < 2 µM
4 | Nc1ncccc1OCc1cc(NC(=O)c2ccccc2)ccc1Cl [Compound 57, N-[3-(2-Amino-pyridin-3-yloxymethyl)-4-chloro-phenyl]-benzamide] | < 20 µM
5 | Nc1ncccc1OCc1cccc(-c2ccccc2)c1 [Compound 20] | < 200 µM
6 | O=C(Nc1ccccc1)Nc1ccc(Cl)c(COc2cccnc2)c1 [Compound 61, 1-[4-Chloro-3-(pyridin-3-yloxymethyl)-phenyl]-3-phenyl-urea] | < 20 µM
7 | CC(C)c1nnc(NC(=O)Nc2ccc(F)c(COc3cccnc3)c2)s1 [Compound 81, 1-[4-Fluoro-3-(pyridin-3-yloxymethyl)-phenyl]-3-(5-isopropyl-[1,3,4]thiadiazol-2-yl)-urea] | < 20 µM

same assay, conditions: Table 2; MKK6-activated p38, MBP substrate, 50 minutes

Row | SMILES | IC50
8 | O=C(Nc1ccc(Cl)c(COc2cnccn2)c1)c1cc(F)cc(N2CCOCC2)c1 [Compound 94, N-[4-Chloro-3-(pyrazin-2-yloxymethyl)-phenyl]-3-fluoro-5-morpholin-4-yl-benzamide] | < 2 µM
9 | Nc1nccnc1OCc1c(Cl)cccc1Cl [Compound 90] | < 1000 µM
10 | O=C(Cn1ccnc1)Nc1cnc(OCc2c(Cl)cccc2Cl)cn1 [Compound 174] | < 20 µM
11 | O=C(Nc1ccc(F)c(COc2cnccn2)c1)c1ccc(=O)n(Cc2ccccc2)c1 [Compound 147, 1-Benzyl-6-oxo-1,6-dihydro-pyridine-3-carboxylic acid [4-fluoro-3-(pyrazin-2-yloxymethyl)-phenyl]-amide] | < 20 µM
12 | c1ccc(CNc2cccc(COc3cnccn3)c2)cc1 [Compound 108] | < 1000 µM
13 | CC(C)(C)c1ccc2[nH]cc(CC(=O)Nc3ccc(F)c(COc4cnccn4)c3)c2c1 [Compound 143] | < 200 µM
14 | CC(C)(Cc1ccncc1)NC(=O)c1cnc(OCc2c(Cl)cccc2Cl)cn1 [Compound 139, 5-(2,6-Dichloro-benzyloxy)-pyrazine-2-carboxylic acid (1,1-dimethyl-2-pyridin-4-yl-ethyl)-amide] | < 20 µM
